Laboratory results from patent US8492371B2, “Compounds as cannabinoid receptor ligands” (priority 2009, dated 2013).
Read-outs that look alike come from different tables or passages of the source.

Tests used:
rat CB2 receptors = biological target: T1, rat CB2 receptors (Rattus norvegicus, UniProt Q9QZN9); assay: Rat CB2 radioligand binding assay ([3H]CP-55,940 competition)
T1 construct: expressed in transfected cells; host or cells: HEK293
T1 sequence (Q9QZN9 1-360): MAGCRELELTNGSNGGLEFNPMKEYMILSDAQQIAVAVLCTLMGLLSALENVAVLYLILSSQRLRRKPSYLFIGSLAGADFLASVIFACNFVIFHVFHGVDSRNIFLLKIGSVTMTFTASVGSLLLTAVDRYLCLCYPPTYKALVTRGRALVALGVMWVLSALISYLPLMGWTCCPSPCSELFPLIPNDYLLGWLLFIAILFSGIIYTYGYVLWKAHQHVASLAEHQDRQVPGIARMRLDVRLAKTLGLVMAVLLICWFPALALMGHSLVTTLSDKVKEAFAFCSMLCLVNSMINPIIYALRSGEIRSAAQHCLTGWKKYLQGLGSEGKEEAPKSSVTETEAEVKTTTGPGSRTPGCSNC
Summary of the method: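 Membranes from HEK293 cells stably expressing rat CB2 (20 μg/well) incubated 45 min at 30 °C with 0.5 nM [3H]CP-55,940 and five competitor concentrations in Tris/EDTA/MgCl2 buffer with 0.5 mg/mL BSA, pH 7.4. Filtration and scintillation counting; nonspecific binding with 10 μM unlabeled CP-55,940.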

human CB2 receptors = biological target: T2, human CB2 receptors (Homo sapiens, UniProt P34972); assay: Human CB2 radioligand binding assay ([3H]CP-55,940 competition)
T2 construct: expressed in transfected cells; host or cells: HEK293
T2 sequence (P34972 whole entry): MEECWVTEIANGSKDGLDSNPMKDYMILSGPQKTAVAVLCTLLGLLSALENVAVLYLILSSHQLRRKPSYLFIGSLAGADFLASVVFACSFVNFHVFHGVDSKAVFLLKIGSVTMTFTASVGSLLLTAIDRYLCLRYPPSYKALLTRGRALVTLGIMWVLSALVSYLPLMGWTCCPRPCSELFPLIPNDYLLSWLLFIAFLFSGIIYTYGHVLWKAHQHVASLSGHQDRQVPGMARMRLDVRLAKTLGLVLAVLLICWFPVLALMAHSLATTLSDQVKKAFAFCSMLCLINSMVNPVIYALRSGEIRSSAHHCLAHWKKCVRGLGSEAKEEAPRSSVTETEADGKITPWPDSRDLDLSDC
Summary of the method: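 Membranes from HEK293 cells stably expressing human CB2 (5 μg/well) incubated 90 min at 30 °C with 0.5 nM [3H]CP-55,940 and five concentrations of displacer (0.01 nM–10 μM) in pH 7.4 Tris/EDTA/MgCl2 buffer with fatty acid free BSA. Bound radioactivity counted after filtration; nonspecific binding defined with 10 μM unlabeled CP-55,940.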

[1] = HEK293 membranes, 0.5 nM [3H]CP-55,940, read-out: human CB2 Ki

Row | SMILES | Ki (rat CB2 receptors) [µM] | Ki (human CB2 receptors) [µM] | Ki (human CB2 receptors; [1]) [µM]
1 | COCCOc1ccc(Br)cc1C(=O)/N=c1\cc(C(C)(C)C)n(C)n1C[C@H]1CCCO1 [Example 58, 5-bromo-N-{(3E)-5-tert-butyl-1-methyl-2-[(2R)-tetrahydrofuran-2-ylmethyl]-1,2-dihydro-3H-pyrazol-3-ylidene}-2-(2-methoxyethoxy)benzamide] | 0.069 | 0.031 | 
2 | Cn1c(C(C)(C)C)c/c(=N\C(=O)c2cc(Br)ccc2OCCF)n1C[C@H]1CCCO1 [Example 59, 5-bromo-N-{(3E)-5-tert-butyl-1-methyl-2-[(2R)-tetrahydrofuran-2-ylmethyl]-1,2-dihydro-3H-pyrazol-3-ylidene}-2-(2-fluoroethoxy)benzamide] | 0.027 | 0.028 | 
3 | Cn1c(C(C)(C)C)c/c(=N\C(=O)c2cc(Br)cc3c2OCC3)n1C[C@H]1CCCO1 [Example 60, 5-bromo-N-{(3E)-5-tert-butyl-1-methyl-2-[(2R)-tetrahydrofuran-2-ylmethyl]-1,2-dihydro-3H-pyrazol-3-ylidene}-2,3-dihydro-1-benzofuran-7-carboxamide] | 0.046 | 0.066 | 
4 | COc1ccc(Cl)cc1C(=O)/N=c1\cc(C(C)(C)C)ccn1C[C@H]1CCCO1 [Example 61, N-[(2E)-4-tert-butyl-1-[(2R)-tetrahydrofuran-2-ylmethyl]pyridin-2(1H)-ylidene]-5-chloro-2-methoxybenzamide] | 0.013 |  | 0.103
5 | COc1ccc(C(F)(F)F)cc1C(=O)/N=c1\cc(C(C)(C)C)ccn1C[C@H]1CCCO1 [Example 62, N-[(2E)-4-tert-butyl-[(2R)-tetrahydrofuran-2-ylmethyl]pyridin-2(1H)-ylidene]-2-methoxy-5-(trifluoromethyl)benzamide] | 0.004 | 0.02 | 
6 | COc1ccc(C(F)(F)F)cc1C(=O)/N=c1\cc(C(C)(C)C)n(C)n1CC1CCCCO1 (centres unmarked) [Example 63, N-[(3E)-5-tert-butyl-1-methyl-2-(tetrahydro-2H-pyran-2-ylmethyl)-1,2-dihydro-3H-pyrazol-3-ylidene]-2-methoxy-5-(trifluoromethyl)benzamide] | 0.02 | 0.036 | 
7 | COc1ccc(C(F)(F)F)cc1C(=O)/N=c1\cc(C(C)(C)C)n(C)n1CC1CC[C@H](C)O1 (some centres unmarked) [Example 65, N-((3E)-5-tert-butyl-1-methyl-2-{[(55)-5-methyltetrahydrofuran-2-yl]methyl}-1,2-dihydro-3H-pyrazol-3-ylidene)-2-methoxy-5-(trifluoromethyl)benzamide] | 0.0057 | 0.065 | 
8 | COc1ccc(C(F)(F)F)cc1C(=O)/N=c1\oc(C(C)(C)C)cn1C[C@H]1CCCO1 [Example 66, N-[(2Z)-5-tert-butyl-3-[(2R)-tetrahydrofuran-2-ylmethyl]-1,3-oxazol-2(3 H)-ylidene]-2-methoxy-5-(trifluoromethyl)benzamide] | 0.0008 | 0.0021 | 
9 | CC1CCC(NC(=O)/N=c2\sc(C(C)(C)C)nn2C[C@H]2CCCO2)CC1 (stereo partly drawn) [Example 67, N-[(2Z)-5-tert-butyl-3-[(2R)-tetrahydrofuran-2-ylmethyl]-1,3,4-thiadiazol-2(3 H)-ylidene]-N′-(4-methylcyclohexyl)urea] | 0.01 | 0.016 | 
10 | CC(C)(C)c1nn(C[C@H]2CCCO2)/c(=N/C(=O)NC2CCCc3ccccc32)s1 (stereo partly drawn) [Example 73, N-[(2Z)-5-tert-butyl-3-[(2R)-tetrahydrofuran-2-ylmethyl]-1,3,4-thiadiazol-2(3 H)-ylidene]-N′-1,2,3,4-tetrahydronaphthalen-1-ylurea] | 0.0082 | 0.045 | 
11 | CC(CCc1ccccc1)NC(=O)/N=c1\sc(C(C)(C)C)nn1C[C@H]1CCCO1 (stereo partly drawn) [Example 79, N-[(2Z)-5-tert-butyl-3-[(2R)-tetrahydrofuran-2-ylmethyl]-1,3,4-thiadiazol-2(3 H)-ylidene]-N′-(1-methyl-3-phenylpropyl)urea] | 0.011 | 0.032 | 
12 | CNC(=O)[C@@H](NC(=O)/N=c1\sc(C(C)(C)C)nn1C[C@H]1CCCO1)C(C)(C)C [Example 82, N^2-({[(2Z)-5-tert-butyl-3-[(2R)-tetrahydrofuran-2-ylmethyl]-1,3,4-thiadiazol-2(3H)-ylidene]amino}carbonyl)-N^1,3-dimethyl-L-valinamide] | 0.01 | 0.0038 | 
13 | CC(C)[C@@H](CO)NC(=O)/N=c1\sc(C(C)(C)C)nn1C[C@H]1CCCO1 [Example 84, N-[(2Z)-5-tert-butyl-3-[(2R)-tetrahydrofuran-2-ylmethyl]-1,3,4-thiadiazol-2(3 H)-ylidene]-N′-[(1S)-1-(hydroxymethyl)-2-methylpropyl]urea] | 0.073 | 0.199 | 
14 | COc1ccc(C(F)(F)F)cc1C(=O)/N=c1\cc(C(C)(C)C)n(C)n1CC1CCOC1 (centres unmarked) [Example 85, N-[(3E)-5-tert-butyl-1-methyl-2-(tetrahydrofuran-3-ylmethyl)-1,2-dihydro-3H-pyrazol-3-ylidene]-2-methoxy-5-(trifluoromethyl)benzamide] | 0.013 | 0.087 | 
15 | Cc1ccc(C(F)(F)F)cc1C(=O)/N=c1\cc(C(C)(C)C)n(C)n1C[C@H]1CCCO1 [Example 86] | 0.0033 | 0.011 | 
16 | Cn1c(C(C)(C)C)c/c(=N\C(=O)c2cc(C(F)(F)F)ccc2Br)n1C[C@H]1CCCO1 [Example 88, 2-bromo-N-{(3E)-5-tert-butyl-1-methyl-2-[(2R)-tetrahydrofuran-2-ylmethyl]-1,2-dihydro-3H-pyrazol-3-ylidene}-5-(trifluoromethyl)benzamide] | 0.0054 | 0.02 | 
17 | COC/C=C/c1ccc(C(F)(F)F)cc1C(=O)/N=c1\cc(C(C)(C)C)n(C)n1C[C@H]1CCCO1 [Example 89, N-{(3E)-5-tert-butyl-1-methyl-2-[(2R)-tetrahydrofuran-2-ylmethyl]-1,2-dihydro-3H-pyrazol-3-ylidene}-2-[(1E)-3-methoxyprop-1-enyl]-5-(trifluoromethyl)benzamide] | 0.0058 | 0.0098 | 
18 | COCCCc1ccc(C(F)(F)F)cc1C(=O)/N=c1\cc(C(C)(C)C)n(C)n1C[C@H]1CCCO1 [Example 90, N-{(3E)-5-tert-butyl-1-methyl-2-[(2R)-tetrahydrofuran-2-ylmethyl]-1,2-dihydro-3H-pyrazol-3-ylidene}-2-(3-methoxypropyl)-5-(trifluoromethyl)benzamide] | 0.003 | 0.0035 | 
19 | COc1ccc(Cl)cc1C(=O)/N=c1\sc(C(C)(C)C)nn1C[C@H]1COC(=O)N1 [Example 91, N-[(2Z)-5-tert-butyl-3-{[(4S)-2-oxo-1,3-oxazolidin-4-yl]methyl}-1,3,4-thiadiazol-2(3H)-ylidene]-5-chloro-2-methoxybenzamide] | 0.03 |  | 0.203
20 | CC(C)=CCOc1ccc(C(F)(F)F)cc1C(=O)/N=c1\cc(C(C)(C)C)n(C)n1C[C@H]1CCCO1 [Example 93, N-{(3E)-5-tert-butyl-1-methyl-2-[(2R)-tetrahydrofuran-2-ylmethyl]-1,2-dihydro-3H-pyrazol-3-ylidene}-2-[(3-methylbut-2-enyl)oxy]-5-(trifluoromethyl)benzamide] | 0.015 | 0.017 | 
21 | Cn1c(C(C)(C)C)c/c(=N\C(=O)c2cc(C(F)(F)F)ccc2OCCC2(O)CCCC2)n1C[C@H]1CCCO1 [Example 94, N-{(3E)-5-tert-butyl-1-methyl-2-[(2R)-tetrahydrofuran-2-ylmethyl]-1,2-dihydro-3H-pyrazol-3-ylidene}-2-[2-(1-hydroxycyclopentyl)ethoxy]-5-(trifluoromethyl)benzamide] | 0.0033 | 0.0026 | 
22 | Cn1c(C(C)(C)C)c/c(=N\C(=O)c2cc(F)cc(C(F)(F)F)c2)n1C[C@H]1CCCO1 [Example 96, N-{(3E)-5-tert-butyl-1-methyl-2-[(2R)-tetrahydrofuran-2-ylmethyl]-1,2-dihydro-3H-pyrazol-3-ylidene}-3-fluoro-5-(trifluoromethyl)benzamide] | 0.0037 | 0.013 | 
23 | CN1CC[C@H](Oc2ccc(C(F)(F)F)cc2C(=O)/N=c2\sc(C(C)(C)C)nn2C[C@H]2CCCO2)C1 [Example 97, N-[(2Z)-5-tert-butyl-3-[(2R)-tetrahydrofuran-2-ylmethyl]-1,3,4-thiadiazol-2(3 H)-ylidene]-2-{[(3S)-1-methylpyrrolidin-3-yl]oxy}-5-(trifluoromethyl)benazmide] | 0.046 | 0.063 | 
24 | CN1CC[C@H](Oc2ccc(C(F)(F)F)cc2C(=O)/N=c2\oc(C(C)(C)C)cn2C[C@H]2CCCO2)C1 [Example 98, N-[(2Z)-5-tert-butyl-3-[(2R)-tetrahydrofuran-2-ylmethyl]-1,3-oxazol-2(3 H)-ylidene]-2-{[(3S)-1-methylpyrrolidin-3-yl]oxy}-5-(trifluoromethyl)benzamide] | 0.088 |  | 0.261
25 | C/C=C/c1ccc(C(F)(F)F)cc1C(=O)/N=c1\cc(C(C)(C)C)n(C)n1C[C@H]1CCCO1 [Example 99, N-{(3E)-5-tert-butyl-1-methyl-2-[(2R)-tetrahydrofuran-2-ylmethyl]-1,2-dihydro-3H-pyrazol-3-ylidene}-2-[(1E)-prop-1-enyl]-5-(trifluoromethyl)benazmide] | 0.0035 | 0.012 | 
